Among the data in a melting point compilation (Tetko et al.) are melting point values, retold here.

For `O[C@@H]1CCCC/C=C\c2ccccc21`, the melting point – broadly, the temperature, or range, at which the solid turns liquid – is 97 °C. To `CCOC(=O)c1ccsc1N` belongs 42 to 44 °C; to `O=C(O)c1ccc2sccc2c1`, 213 to 214 °C; to `c1ccc2cc3c(cc2c1)OCCOCCOCCOCCO3`, 117 to 118 °C. In the case of `C1COCCOCCOCCO1`, the melting point amounted to 16 °C. With `CCN(CC)C(=S)Cl`, the melting point lay within 45 to 50 °C.

For the compound `CC(=O)Nc1cc([N+](=O)[O-])c(/C=C/c2ccccc2)c([N+](=O)[O-])c1/C=C/c1ccccc1`, the melting point came to 171 °C. The compound `CC=C1CCC2C3CCC4CC(OC(C)=O)CCC4(C)C3CCC12C` (stereo unspecified) displayed a melting point of 118 to 120 °C.

Take `CC(C)CCCCCCCOC(=O)c1ccccc1C(=O)OCCCCCCCC(C)C`: the melting point was -45.6 °C. To `CC1(C)CC(=O)[C@]2(C)C=C[C@H]1N(c1ccccc1)O2` belongs 56.9 °C. With `O=C(O)COc1cccc(Cl)c1Cl`, the melting point is 174 °C. To `O=Cc1cc(-c2ccco2)on1` belongs 60 to 61 °C. Take `C[Si](C)(C)C1c2ccccc2-c2ccccc21`: the melting point is 96.5 °C. To `O=C(O)c1cc(F)c(Cl)c([N+](=O)[O-])c1Cl` belongs 193 to 197 °C; to `Cc1ccc(S(=O)(=O)c2ccccc2)cc1`, 127 °C. As to `CC(=O)Nc1ccccc1C=Cc1cc(C=Cc2ccccc2NC(C)=O)c([N+](=O)[O-])cc1[N+](=O)[O-]`, the melting point was found to be 270 °C. In turn, `Cn1nc(O)cc1C(F)(F)F` registered a melting point of 114 to 115 °C.

Take `COc1ccc(C(=O)c2ccccc2Cl)cc1OC`: the melting point is 125 to 126 °C. For the compound `OCc1cc(-c2cccs2)on1`, the melting point lay in the range of 62 to 64 °C. In the case of `COc1cc2c(cc1OC)C(c1ccc([N+](=O)[O-])cc1)N(C(C)=O)CC2` (stereo unspecified), the melting point lay in the range of 183 to 185 °C. In the case of `CC(C)(C)c1cc(N)cc(C(C)(C)C)c1`, the melting point came out at 56 °C. Compound `C[Si](C)(C)O[Si](C)(C)C` registered a melting point of -59 °C. As to `O=C1C=CC(=O)N1c1ccc(Br)cc1`, the melting point was in the range of 135 to 137 °C. Compound `C1CCC2OCCOCCOC3CCCCC3OCCOCCOC2C1` (stereo unspecified) yielded a melting point of 66 to 70 °C. `CCOC(=O)NN(C(=O)OCC)c1c(-c2ccccc2)nc2n1CCS2` registered a melting point of 179 to 180 °C. The compound `N=C(N)NCC(O)CC(O)(C(=O)O)C1OC(n2cc(CO)c(N)nc2=O)C=CC1NC(=O)C(N)CO` (stereo unspecified) came in with a melting point greater than 300 °C. For the compound `Cc1nc(-c2ccc(Br)cc2)cs1`, the melting point is 130 to 135 °C.

Consider `C#CCC1(CC#C)C(=O)OC(C)(C)OC1=O`, for which the melting point lay within 135 to 137 °C.

`Cc1c(S(=O)(=O)c2ccc(Cl)cc2)csc1C(=O)NN` gave a melting point of 165 to 168 °C. Compound `Cc1nc(-c2ccc(C(=O)Cl)cc2)no1` returned a melting point of 112 to 113 °C. Take `Cc1nc2sc3c(c2c(=O)n1NC(=O)c1ccc(Cl)cc1)CCCC3`: the melting point lay within 234 to 235 °C. On to `Cn1c(/C(C#N)=C/c2c(Cl)cccc2Cl)nc2ccccc21`, for which the melting point is 185 °C. To `CCCCCCCCCCCCCC(C)C` belongs -7 °C. `Cc1cc(C)c(C(N)=O)c(N)n1`: the melting point is 172 to 174 °C. In turn, `CCCCCCCCC=CCCCCCCCC(=O)OCC(O)CO` (stereo unspecified) yielded a melting point of 35 °C. As to `O=C(Cl)C(Cl)(c1ccccc1)c1ccccc1`, the melting point fell in the range of 47 to 52 °C.

Compound `CCOC(=O)C1=C(N)CCCC1` returned a melting point of 70 to 74 °C. To `O=[N+]([O-])c1ccc(Cl)nc1` belongs 107 °C. `COc1ccc(C=O)c(OC)c1OC` gave a melting point of 40 °C. As for `CCCCCCCCc1ccc(O)cc1`, the melting point was 45 °C.

For `O=C1C(Br)=C(Br)C(=O)C(Br)=C1Br`, the melting point was in the range of 292 to 294 °C. Regarding `O=C1NC(=O)C2(CCCCC2)N1`, the melting point lay in the range of 218 to 220 °C. `SCc1ccc(Br)cc1` had a melting point of 27 °C. Regarding `Cc1oc(C(=O)NN)nc1-c1ccccc1`, the melting point lay in the range of 124 to 126 °C. Turning to `COc1cc2c(c(O)c1OC)CNCC2`, the melting point amounted to 188 °C. In turn, `CCc1nn(C)c(C(=O)NCc2ccc(C(C)(C)C)cc2)c1Cl` yielded a melting point of 65 °C. In turn, `CCCOCC(=Nc1ccc(Cl)cc1C(F)(F)F)n1ccnc1` displayed a melting point of 63.5 °C. To `COc1cc2ccc(=O)oc2cc1O` belongs 204 °C. To `CC1(C)CC(=O)C2=C(C1)Nc1ccc3ccccc3c1C2c1ccc(Cl)cc1Cl` (stereo unspecified) belongs 348 °C; to `O=C1CCc2ccccc2CC1`, 30 °C.

With `Cn1nc(CO)cc1-c1ccco1`, the melting point was 43 to 48 °C. In the case of `Cn1nc(-c2cccs2)cc1N`, the melting point lay in the range of 139 to 140 °C. In turn, `CCCCNC(=O)NCCCC` yielded a melting point of 74 to 75 °C.

For the compound `CC1C(=O)CCC2C1(C)CCC1C2(C)CCC2(C)C3CC(C)(C)CCC3(C)CCC12C` (stereo unspecified), the melting point stood at 263 °C. To `CN(C)c1ccc(C=C2C(=O)OC(C)(C)OC2=O)cc1` belongs 162 °C; to `NS(=O)(=O)c1cc2c(cc1Cl)NC(C1CC3C=CC1C3)NS2(=O)=O` (stereo unspecified), 234 °C; to `CSc1nc(NS(=O)(=O)c2ccc(C)cc2)c(C#N)c(-c2ccc(Cl)cc2)c1Br`, 218 °C. In turn, `COc1ccc(C)c(C(=O)O)c1` displayed a melting point of 147 °C. To `CC(C)(C)OC(=O)Nc1ccc(C(=O)O)cc1` belongs 179 to 181 °C; to `CN1CCN(Cc2ccccc2I)CC1`, 37 to 38 °C; to `Cc1cc(S(=O)(=O)c2ccccc2)ccc1NS(=O)(=O)C(F)(F)F`, 143 °C.

Take `NNC(=O)c1ccc(OCc2ccccc2)cc1`: the melting point came out at 140 °C. The compound `O=S1(=O)Cc2ncc3ccccc3c2C1` yielded a melting point of 210 °C.

`CCNC(N)=O` had a melting point of 92.5 °C.

`Cc1ccc(C)c(N2CCNCC2)c1` registered a melting point of 45 °C. Regarding `CCCCCCCCOc1ccc(NC(=O)c2ccc(OC)cc2)cc1`, the melting point fell in the range of 152 to 154 °C. `COS(=O)(=O)c1cc([N+](=O)[O-])ccc1C=Cc1ccc([N+](=O)[O-])cc1S(=O)(=O)OC`: the melting point was 228 °C. In turn, `COC1CC2C3(C)CCCC2(COC3O)C2C(OC(C)=O)CC3C(C)C(=O)C12C3O` (stereo unspecified) registered a melting point of 200 °C. To `O=[N+]([O-])c1cc(Cl)c(Cl)cc1Nc1ccccn1` belongs 156 °C. To `COC(=O)C#Cc1cccc(C#CC(=O)OC)c1` belongs 93 °C; to `CC(=O)Oc1ccc(O)cc1`, 62 °C.

`CCCCCCOC(=O)CCCC` came in with a melting point of -63.1 °C. `CC(=NO)c1cccnc1` came in with a melting point of 103 to 105 °C. In turn, `FC(F)(F)c1nn(CN2CCN(Cn3nc(C(F)(F)F)n(N=Cc4ccccc4)c3=S)CC2)c(=S)n1N=Cc1ccccc1` had a melting point of 333 °C. Consider `CCc1c(CC)c(CC)c(CC)c(CC)c1CC`, for which the melting point was found to be 129 °C. To `COc1ccccc1Cl` belongs -26.8 °C.
